{"source": "paper PMC7596714", "about": "“Acute EPA-induced learning and memory impairment in mice is prevented by DHA” (Nature Communications, 2020)", "molecular_target": "T1, 5-HT6R (5-hydroxytryptamine6 receptor, serotonin 6 receptor) (Homo sapiens, UniProt P50406)", "T1 construct": "gene HTR6", "T1 sequence (P50406 whole entry)": "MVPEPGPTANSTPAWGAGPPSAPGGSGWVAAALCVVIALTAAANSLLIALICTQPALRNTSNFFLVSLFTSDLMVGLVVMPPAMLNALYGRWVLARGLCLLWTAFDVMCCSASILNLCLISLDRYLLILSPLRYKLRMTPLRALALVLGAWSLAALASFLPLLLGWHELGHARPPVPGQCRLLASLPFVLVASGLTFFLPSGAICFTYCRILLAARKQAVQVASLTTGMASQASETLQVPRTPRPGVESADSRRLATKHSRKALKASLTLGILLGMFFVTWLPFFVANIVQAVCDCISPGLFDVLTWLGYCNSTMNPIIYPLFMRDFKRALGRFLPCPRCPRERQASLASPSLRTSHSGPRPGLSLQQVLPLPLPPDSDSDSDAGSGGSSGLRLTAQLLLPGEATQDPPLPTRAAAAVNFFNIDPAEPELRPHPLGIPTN", "assay": "radioligand competition with [3H]-LSD; supported by cAMP accumulation in […] cells with human 5-HT6R plasmid", "format": "binding", "data": [{"smiles": "CC/C=C\\C/C=C\\C/C=C\\C/C=C\\C/C=C\\CCCC(=O)O", "note": "[EPA, Eicosapentaenoic acid]", "values": [{"measurement": "IC50", "result": 26.6, "unit": "µM"}]}]}
